# Source: publication PMC6747015, “Structure–function study of a novel inhibitor of the casein kinase 1 family in Arabidopsis thaliana” (Plant Direct, 2019)
# How the values were obtained:
# [1] = target: T1, CKL6 (AT4G28540) (Arabidopsis thaliana, UniProt Q8LPJ1); assay: AMI‐329 bead binding with AMI‐331 competitor, CKL6
# T1 construct: from tissue; host or cells: Arabidopsis seedlings, two weeks old
# Procedure: (§1) Screening for proteins bound to AMI‐329 beads was done by a method similar to what has previously been described (Uehara et al., 2019). Briefly, two‐week‐old seedlings grown under LD conditions were harvested at time points ZT2, ZT6, ZT9, and ZT17, and stored at −80°C. Proteins from the frozen plant samples were incubated with 0, 5, or 50 µM of AMI‐331 at 4°C for 30 min with rotary mixing. Two technical replicates were used for each experiment. PBS‐washed AMI‐329 beads were added to the protein samples and gently rotated at 4°C for 1 hr. AMI‐329 bead resins were washed with bead buffer (Uehara et al., 2019) six times. The washed resins were suspended in SDS sample buffer and boiled for 8 min. Protein samples were in‐gel‐digested as previously described (Uehara et al., 2019). Peptides were analyzed with a Q Exactive hybrid quadrupole‐orbitrap mass spectrometer (Thermo Fisher Scientific), as described previously (Uehara et al., 2019). […]
# (§2) However, another possible mechanism for the strong AMI‐331 biological activity in vivo is that it targets proteins other than the CK1 family for period lengthening. […] It is noteworthy that kinase AT4G08800 is very similar to the CKL family, but the ATP‐binding pocket of mammalian CK1 as determined by its crystal structure (Shinohara et al., 2017) was absent from AT4G08800, as shown in an Araport 11 model (https://www.araport.org). […]
# [2] = target: T2, LUP1 (AT1G78970) (Arabidopsis thaliana, UniProt Q9C5M3); assay: AMI‐329 bead binding with AMI‐331 competitor, LUP1
# T2 construct: from tissue; host or cells: Arabidopsis seedlings, two weeks old
# Procedure: as §1, §2
# [3] = target: T3, CKL1 (AT4G26100) (Arabidopsis thaliana, UniProt P42158); assay: AMI‐329 bead binding with AMI‐331 competitor, CKL1
# T3 construct: from tissue; host or cells: Arabidopsis seedlings, two weeks old
# Procedure: as §1, §2
# [4] = test system: ATSK (GSK3) family proteins; assay: AMI‐329 bead binding with AMI‐331 competitor, ATSK family; parameters: species or system Arabidopsis thaliana; settings: 50 µM AMI‐331 as competitor
# Procedure: Screening for proteins bound to AMI‐329 beads was done by a method similar to what has previously been described (Uehara et al., 2019). Briefly, two‐week‐old seedlings grown under LD conditions were harvested at time points ZT2, ZT6, ZT9, and ZT17, and stored at −80°C. Proteins from the frozen plant samples were incubated with 0, 5, or 50 µM of AMI‐331 at 4°C for 30 min with rotary mixing. Two technical replicates were used for each experiment. PBS‐washed AMI‐329 beads were added to the protein samples and gently rotated at 4°C for 1 hr. AMI‐329 bead resins were washed with bead buffer (Uehara et al., 2019) six times. The washed resins were suspended in SDS sample buffer and boiled for 8 min. Protein samples were in‐gel‐digested as previously described (Uehara et al., 2019). Peptides were analyzed with a Q Exactive hybrid quadrupole‐orbitrap mass spectrometer (Thermo Fisher Scientific), as described previously (Uehara et al., 2019). MS/MS spectra were interpreted, and peak lists were generated using Proteome Discoverer 2.0.0.802 (Thermo Fisher Scientific). Searches were performed using SEQUEST (Thermo Fisher Scientific) against the Arabidopsis thaliana (TAIR TaxID = 3,702) peptide sequence database. […]
# To examine other potential targets of AMI‐331, we analyzed the spectra for PHA767491 target proteins (Uehara et al., 2019). […]
# [5] = target: T4, RNA‐binding AT3G15010 (Arabidopsis thaliana, UniProt Q9LKA4); assay: AMI‐329 bead binding with AMI‐331 competitor, RNA‐binding protein AT3G15010
# T4 construct: Proteins from the frozen plant samples were incubated with 0, 5, or 50 µM of AMI‐331; from tissue; host or cells: two-week-old Arabidopsis seedlings (protein lysate)
# Procedure: as §1, §2
# [6] = target: T5, Membrane protein AT5G40670 (Arabidopsis thaliana, UniProt P57758); assay: AMI‐329 bead binding with AMI‐331 competitor, membrane protein AT5G40670
# T5 construct: from tissue; host or cells: Arabidopsis seedlings, two weeks old
# Procedure: as §1, §2
# [7] = target: T6, CKL8 (AT5G43320) (Arabidopsis thaliana, UniProt Q9LSX4); assay: AMI‐329 bead binding with AMI‐331 competitor, CKL8
# T6 construct: from tissue; host or cells: Arabidopsis seedlings, two weeks old
# Procedure: as §1, §2
# [8] = target: CKL1 (Arabidopsis thaliana, UniProt P42158); assay: In vitro CKL1 kinase activity; assay type: biochemical
# Description: Supplemental Figure3.InvitroCKL1 kinaseactivitywithAMI-331.
# T1 sequence (Q8LPJ1 whole entry): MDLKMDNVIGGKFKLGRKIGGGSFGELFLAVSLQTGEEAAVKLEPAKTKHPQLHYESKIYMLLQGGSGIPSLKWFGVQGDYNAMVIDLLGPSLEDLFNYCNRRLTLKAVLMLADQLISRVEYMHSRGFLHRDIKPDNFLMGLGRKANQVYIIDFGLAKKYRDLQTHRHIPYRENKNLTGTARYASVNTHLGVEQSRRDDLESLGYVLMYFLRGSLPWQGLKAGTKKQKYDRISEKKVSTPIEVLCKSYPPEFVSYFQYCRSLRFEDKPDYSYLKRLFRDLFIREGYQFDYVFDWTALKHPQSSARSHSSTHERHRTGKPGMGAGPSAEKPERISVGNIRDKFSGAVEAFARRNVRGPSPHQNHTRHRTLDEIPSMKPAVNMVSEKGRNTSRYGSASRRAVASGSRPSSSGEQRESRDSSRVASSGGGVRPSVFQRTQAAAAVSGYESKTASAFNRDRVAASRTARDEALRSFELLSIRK
# T2 sequence (Q9C5M3 whole entry): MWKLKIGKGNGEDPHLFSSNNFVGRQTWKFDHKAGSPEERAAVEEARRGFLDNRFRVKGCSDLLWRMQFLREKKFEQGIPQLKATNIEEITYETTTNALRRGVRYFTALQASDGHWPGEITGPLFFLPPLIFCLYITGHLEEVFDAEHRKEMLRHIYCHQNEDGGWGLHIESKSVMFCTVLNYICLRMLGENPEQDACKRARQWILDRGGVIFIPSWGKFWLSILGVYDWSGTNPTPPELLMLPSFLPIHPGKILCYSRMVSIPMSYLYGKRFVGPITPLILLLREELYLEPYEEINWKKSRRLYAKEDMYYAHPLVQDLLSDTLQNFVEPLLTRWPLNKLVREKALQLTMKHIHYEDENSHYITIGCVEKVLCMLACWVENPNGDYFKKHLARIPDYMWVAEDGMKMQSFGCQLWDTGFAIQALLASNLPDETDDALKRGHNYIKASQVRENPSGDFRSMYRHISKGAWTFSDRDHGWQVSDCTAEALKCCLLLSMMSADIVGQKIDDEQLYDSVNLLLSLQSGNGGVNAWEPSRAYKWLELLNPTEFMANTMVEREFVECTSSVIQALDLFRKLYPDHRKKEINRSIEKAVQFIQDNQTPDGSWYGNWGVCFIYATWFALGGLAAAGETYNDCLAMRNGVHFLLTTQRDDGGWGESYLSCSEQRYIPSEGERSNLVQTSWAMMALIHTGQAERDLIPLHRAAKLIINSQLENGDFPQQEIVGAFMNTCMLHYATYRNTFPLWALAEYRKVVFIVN
# T4 sequence (Q9LKA4 whole entry): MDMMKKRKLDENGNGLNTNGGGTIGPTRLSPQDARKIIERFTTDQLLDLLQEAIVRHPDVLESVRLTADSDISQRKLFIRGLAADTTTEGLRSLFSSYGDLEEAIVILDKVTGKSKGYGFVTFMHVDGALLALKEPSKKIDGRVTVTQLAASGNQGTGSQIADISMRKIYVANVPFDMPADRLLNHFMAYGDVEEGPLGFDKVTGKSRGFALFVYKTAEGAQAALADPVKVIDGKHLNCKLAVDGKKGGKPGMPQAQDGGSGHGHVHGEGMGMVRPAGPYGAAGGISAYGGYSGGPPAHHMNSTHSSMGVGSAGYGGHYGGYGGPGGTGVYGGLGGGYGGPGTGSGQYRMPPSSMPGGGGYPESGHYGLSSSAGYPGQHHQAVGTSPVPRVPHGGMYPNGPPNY
# T6 sequence (Q9LSX4 whole entry): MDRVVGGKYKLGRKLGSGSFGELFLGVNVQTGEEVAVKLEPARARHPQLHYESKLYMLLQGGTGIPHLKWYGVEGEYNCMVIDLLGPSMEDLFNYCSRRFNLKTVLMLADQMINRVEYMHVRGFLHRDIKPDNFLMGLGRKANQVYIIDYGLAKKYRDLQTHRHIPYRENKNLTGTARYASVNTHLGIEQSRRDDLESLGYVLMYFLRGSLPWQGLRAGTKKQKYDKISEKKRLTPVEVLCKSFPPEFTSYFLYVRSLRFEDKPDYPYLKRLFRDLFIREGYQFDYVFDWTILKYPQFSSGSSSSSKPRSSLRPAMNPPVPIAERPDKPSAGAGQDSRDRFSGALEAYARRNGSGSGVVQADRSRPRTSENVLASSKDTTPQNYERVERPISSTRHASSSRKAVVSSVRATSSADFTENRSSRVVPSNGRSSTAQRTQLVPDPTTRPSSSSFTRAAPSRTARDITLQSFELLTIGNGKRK
# T3 sequence (P42158 whole entry): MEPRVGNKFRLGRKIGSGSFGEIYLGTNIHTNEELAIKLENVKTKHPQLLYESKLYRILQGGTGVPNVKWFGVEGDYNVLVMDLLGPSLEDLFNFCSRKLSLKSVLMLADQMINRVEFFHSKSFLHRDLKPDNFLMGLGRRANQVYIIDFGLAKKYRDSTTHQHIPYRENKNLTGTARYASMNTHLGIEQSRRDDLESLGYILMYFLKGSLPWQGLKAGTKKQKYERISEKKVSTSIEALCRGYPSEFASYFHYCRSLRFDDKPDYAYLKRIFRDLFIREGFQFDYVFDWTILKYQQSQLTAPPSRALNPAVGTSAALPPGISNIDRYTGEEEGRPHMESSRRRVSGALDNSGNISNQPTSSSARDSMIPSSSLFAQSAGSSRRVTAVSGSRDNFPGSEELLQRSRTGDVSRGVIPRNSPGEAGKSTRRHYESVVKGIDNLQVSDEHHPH
# T5 sequence (P57758 whole entry): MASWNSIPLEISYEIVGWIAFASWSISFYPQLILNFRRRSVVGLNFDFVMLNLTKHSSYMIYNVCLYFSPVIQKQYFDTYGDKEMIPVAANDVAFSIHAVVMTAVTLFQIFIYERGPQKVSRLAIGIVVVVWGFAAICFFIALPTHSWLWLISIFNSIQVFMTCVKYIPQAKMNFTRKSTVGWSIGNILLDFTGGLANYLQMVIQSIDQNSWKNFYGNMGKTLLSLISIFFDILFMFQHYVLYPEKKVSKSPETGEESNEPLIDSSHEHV
# Sequence of CKL1 (P42158 whole entry): as the sequence (P42158 whole entry) above
structure (smiles),measurement,setting,value
C#CCn1c2c(c(Br)c1-c1ccncc1)C(=O)NCC2.Cl [AMI‐331],Spectra (PSMs) AMI‐329 beads bound,[1]; competitor AMI‐331 5 µM,1 PSMs
same,Spectra (PSMs) AMI‐329 beads bound,[1]; competitor AMI‐331 50 µM,0 PSMs
same,Spectra (PSMs) AMI‐329 beads bound,[2]; competitor AMI‐331 5 µM,0 PSMs
same,Spectra (PSMs) AMI‐329 beads bound,[2]; competitor AMI‐331 50 µM,0 PSMs
same,Spectra (PSMs) AMI‐329 beads bound,[3]; competitor AMI‐331 5 µM,2 PSMs
same,Spectra (PSMs) AMI‐329 beads bound,[3]; competitor AMI‐331 50 µM,0 PSMs
same,Spectra on AMI‐329 beads relative to 0 µM sample,[4],0%–13%
same,Spectra (PSMs) AMI‐329 beads bound,[5]; competitor AMI‐331 5 µM,0 PSMs
same,Spectra (PSMs) AMI‐329 beads bound,[5]; competitor AMI‐331 50 µM,0 PSMs
same,Spectra (PSMs) AMI‐329 beads bound,[6]; competitor AMI‐331 5 µM,0 PSMs
same,Spectra (PSMs) AMI‐329 beads bound,[6]; competitor AMI‐331 50 µM,0 PSMs
same,Spectra (PSMs) AMI‐329 beads bound,[7]; competitor AMI‐331 5 µM,0 PSMs
same,Spectra (PSMs) AMI‐329 beads bound,[7]; competitor AMI‐331 50 µM,0 PSMs
same,IC50,[8],1400 nM
